Measured values published in PMC10254852, “Design, Synthesis and Anticancer Evaluation of Nitroimidazole Radiosensitisers” (Molecules, 2023).

tested on: not listed separately; assay: Solubility in αMEM culture medium (HPLC of saturated solutions); assay type: physicochemical; details: αMEM culture medium with 5% foetal calf serum and 1% DMSO, plasma or biological fluid, kinetic from dmso stock, α-MEM culture medium containing 5% foetal calf serum, 37 °C

Q: With `O=[N+]([O-])c1nccn1CCNS(=O)(=O)CCO` [Compound 17, 2-Hydroxy-N-(2-(2-nitro-1H-imidazol-1-yl)ethyl)ethane-1-sulfonamide] as the molecule, how does the solubility read?
A: Its solubility is > 101 mM.

tested on: not listed separately; assay: Stability in αMEM culture medium (HPLC after 24 h); assay type: physicochemical; details: after 24 h incubation at 37 °C
Method: The stability of the same solutions after 24 h incubation at 37 °C was measured by HPLC analysis.

Q: With `O=[N+]([O-])c1nccn1CCNS(=O)(=O)CCO` [Compound 17, 2-Hydroxy-N-(2-(2-nitro-1H-imidazol-1-yl)ethyl)ethane-1-sulfonamide] as the molecule, how does the “% Stability in αMEM” value read?
A: Its value is 100.0%.

tested on: HCT116/54C cells; assay: In vitro cytotoxicity, 4 h exposure oxic/anoxic, 5-day regrowth, sulforhodamine B; assay type: cell-based, human; details: HCT116/54C, IC50(oxic)/IC50(anoxic)
Description: (§1) This allowed derivation of hypoxia cytotoxicity ratios (HCR) as IC50(oxic)/IC50(anoxic) in an HCT116 subclone HCT116/54C and two HNSCC cell lines, FaDu and UT-SCC-74B (Table 2).
(§2) HCT116/54C is an HCT116 subline that originated from a mixed culture with UT-SCC-54C cells, which was supplied alongside UT-SCC-74B by Prof. Bradly Wouters (University Health Network, Toronto, ON, Canada). HCT116/54C and UT-SCC-74B cells were passaged in minimum essential media (MEM, ThermoFisher Scientific, Waltham, MA, USA) with 10% foetal calf serum (FCS, Moregate Biotech, Hamilton, New Zealand), 4.5 mg/mL D-glucose (Sigma-Aldrich, St. Louis, MO, USA) and 20 mM HEPES (Sigma-Aldrich). FaDu cells were sourced from American Type Culture Collection and cultured in αMEM (ThermoFisher Scientific) with 10% FCS. All cell lines were confirmed mycoplasma-free by PlasmoTest (InvivoGen, San Diego, CA, USA) and were derived from STR-authenticated cryopreserved stocks. Log-phase cells were seeded into 96-well plates at 800 cells/well for HCT116/54C and 1500 cells/well for FaDu. […] After drug washout, cells were grown and stained as for the oxic IC50 assays. The hypoxic cytotoxicity ratio HCR was determined as HCR = IC50(oxic)/IC50(anoxic).

Q: Which HCR does the source give for `O=C(Cn1ccnc1[N+](=O)[O-])NCCO` [Compound 2, etanidazole, reference compound] here?
A: Its HCR is >14.8.

Q: With `O=[N+]([O-])c1nccn1CCNS(=O)(=O)CCO` [Compound 17, 2-Hydroxy-N-(2-(2-nitro-1H-imidazol-1-yl)ethyl)ethane-1-sulfonamide] as the molecule, how does the HCR read?
A: Its HCR is >5.3.

same assay, conditions: Homo sapiens; HCT116/54C, anoxic, 4 h exposure, mean ± SEM, n = 3–4; read-out: IC50 Anoxic

Q: For `O=C(Cn1ccnc1[N+](=O)[O-])NCCO` [Compound 2, etanidazole, reference compound], which IC50 is on record?
A: Its IC50 is 1700 ± 200 µM.

Q: Which IC50 does the source give for `O=[N+]([O-])c1nccn1CCNS(=O)(=O)CCO` [Compound 17, 2-Hydroxy-N-(2-(2-nitro-1H-imidazol-1-yl)ethyl)ethane-1-sulfonamide] here?
A: The IC50 was 3200 ± 200 µM.

same assay, conditions: Homo sapiens; HCT116/54C, oxic, 4 h exposure, mean ± SEM, n = 3–4; read-out: IC50 Oxic

Q: With `O=C(Cn1ccnc1[N+](=O)[O-])NCCO` [Compound 2, etanidazole, reference compound] as the molecule, how does the IC50 read?
A: The IC50 was > 25000 µM.

Q: With `O=[N+]([O-])c1nccn1CCNS(=O)(=O)CCO` [Compound 17, 2-Hydroxy-N-(2-(2-nitro-1H-imidazol-1-yl)ethyl)ethane-1-sulfonamide] as the molecule, how does the IC50 read?
A: The IC50 was > 17000 µM.

tested on: UT-SCC-74B cells; assay: as above; assay type: cell-based, human; details: Homo sapiens, anoxic, 4 h exposure, mean ± SEM, n = 3–4, read-out: IC50 Anoxic
Description: as §1, §2

Q: With `O=[N+]([O-])c1nccn1CCNS(=O)(=O)CCO` [Compound 17, 2-Hydroxy-N-(2-(2-nitro-1H-imidazol-1-yl)ethyl)ethane-1-sulfonamide] as the molecule, how does the IC50 read?
A: The IC50 was 2900 ± 500 µM.

same assay, conditions: Homo sapiens, oxic, 4 h exposure, mean ± SEM, n = 3–4, read-out: IC50 Oxic

Q: Which IC50 does the source give for `O=[N+]([O-])c1nccn1CCNS(=O)(=O)CCO` [Compound 17, 2-Hydroxy-N-(2-(2-nitro-1H-imidazol-1-yl)ethyl)ethane-1-sulfonamide] here?
A: Its IC50 is > 20000 µM.

same assay, conditions: IC50(oxic)/IC50(anoxic)

Q: Which HCR does the source give for `O=[N+]([O-])c1nccn1CCNS(=O)(=O)CCO` [Compound 17, 2-Hydroxy-N-(2-(2-nitro-1H-imidazol-1-yl)ethyl)ethane-1-sulfonamide] here?
A: The HCR was >6.8.

tested on: FaDu cells; assay: as above; assay type: cell-based; details: Homo sapiens, anoxic, 4 h exposure, mean ± SEM, n = 3–4, read-out: IC50 Anoxic
Description: as §1, §2

Q: For `O=C(Cn1ccnc1[N+](=O)[O-])NCCO` [Compound 2, etanidazole, reference compound], which IC50 is on record?
A: The IC50 was 1500 ± 300 µM.

Q: Which IC50 does the source give for `O=[N+]([O-])c1nccn1CCNS(=O)(=O)CCO` [Compound 17, 2-Hydroxy-N-(2-(2-nitro-1H-imidazol-1-yl)ethyl)ethane-1-sulfonamide] here?
A: Its IC50 is 2800 ± 600 µM.

same assay, conditions: Homo sapiens, oxic, 4 h exposure, mean ± SEM, n = 3–4, read-out: IC50 Oxic

Q: For `O=C(Cn1ccnc1[N+](=O)[O-])NCCO` [Compound 2, etanidazole, reference compound], which IC50 is on record?
A: The IC50 was > 20000 µM.

Q: With `O=[N+]([O-])c1nccn1CCNS(=O)(=O)CCO` [Compound 17, 2-Hydroxy-N-(2-(2-nitro-1H-imidazol-1-yl)ethyl)ethane-1-sulfonamide] as the molecule, how does the IC50 read?
A: The IC50 was > 18000 µM.

same assay, conditions: IC50(oxic)/IC50(anoxic)

Q: Which HCR does the source give for `O=C(Cn1ccnc1[N+](=O)[O-])NCCO` [Compound 2, etanidazole, reference compound] here?
A: The HCR was >13.3.

Q: Which HCR does the source give for `O=[N+]([O-])c1nccn1CCNS(=O)(=O)CCO` [Compound 17, 2-Hydroxy-N-(2-(2-nitro-1H-imidazol-1-yl)ethyl)ethane-1-sulfonamide] here?
A: Its HCR is >6.4.

tested on: HCT116/54C cells; assay: In vitro radiosensitisation under anoxia, clonogenic survival; assay type: cell-based, human; details: compound 1 mM, radiation dose for 1% survival/radiation dose for 1% survival with compound, mean ± SEM
Method: Next, we evaluated in vitro radiosensitisation by using a representative subset of nitroimidazole compounds in HCT116/54C cells with a clonogenic survival endpoint. Radiosensitisation was determined by treating cells under anoxia with a range of radiation doses alone and with compounds at equimolar doses (1 mM). Sensitiser enhancement ratios (SER) were calculated as the ratio of radiation dose required for 1% clonogenic survival alone or with compound (Table 3).
Cells were seeded onto 96-well plates at 10^5 cells per well and allowed to attach for 2 h. […] The plates were irradiated (Eldorado 78 ^60Co teletherapy unit, ~2 Gy/min) with 15 Gy under anoxia at room temperature for SR experiments. A metal wedge placed on the top of the metal chamber was used to achieve a graduated radiation dose across the plate, varying from 7 to 29 Gy, calibrated by Fricke dosimetry with ammonium thiocyanate as previously described for SER experiments. The control plate (compound alone, no radiation) was left inside the anaerobic chamber at room temperature during the irradiation period. After treatment, the cells were trypsinized and suspended in usual media + 1% penicillin-streptomycin (ThermoFisher Scientific), and 10-fold serial dilutions were plated for clonogenic survival. After 10 days, plates were stained with methylene blue (2 g/L in EtOH/H2O, 1:1 v/v) and colonies with more than 50 cells were counted. The surviving fraction (SF) was determined as: SF = PE(irradiated)/PE(control) where the plating efficiency (PE) = (No. of colonies)/(No. of cells plated). SF was plotted against radiation dose. Survival ratios (SR) were calculated: SR = (cell survival with radiation)/(cell survival with drug + radiation). Sensitizer enhancement ratios (SER) were calculated: SER = (radiation dose for 1% survival without compound)/(radiation dose for 1% survival with compound).

Q: With `O=C(Cn1ccnc1[N+](=O)[O-])NCCO` [Compound 2, etanidazole, reference compound] as the molecule, how does the “SER at 1 mM” value read?
A: The value was 1.18 ± 0.00.

Q: For `O=[N+]([O-])c1nccn1CCNS(=O)(=O)CCO` [Compound 17, 2-Hydroxy-N-(2-(2-nitro-1H-imidazol-1-yl)ethyl)ethane-1-sulfonamide], which “SER at 1 mM” value is on record?
A: Its value is 1.35 ± 0.02.

tested on: HCT116/54C tumours; assay: Tumour radiosensitisation: ex vivo clonogenic assay; assay type: in vivo, NIH-III mice; details: 2.2 mmol/kg i.v. 5 min prior to 10 Gy radiation, surviving fraction after radiation/surviving fraction after drug + radiation
Method: (§3) Specific pathogen-free six- to eight-week-old female NIH-III mice, bred in the Vernon Jansen Unit, University of Auckland, were used for animal experiments. Animals had ad libitum access to food and water and were maintained in microisolator cages on a 12 h light/dark cycle. All treatments were administered by i.v. injection at a dose of 2.2 mmol/kg and injection volume of 10 mL/kg. Compounds 2, 34 and 38 were administered as solutions in saline containing 1% DMSO or for 9–12 as solutions in saline containing 2 molar equivalents of NaHCO3. Control animals received an i.v. injection of saline at 10 mL/kg. All animal experiments were conducted under the auspices of the University of Auckland Animal Ethics Committee (approval 1781).
(§4) Compounds were evaluated for in vivo radiosensitisation of hypoxic cells in HCT116/54C and UT-SCC-74B human tumour xenografts using clonogenic survival as an endpoint, using previously report methods. Tumours were grown subcutaneously on the flanks of NIH-III mice by injecting 5 × 10^6 HCT116/54C cells or UT-SCC-74B cells. Once tumours reached a volume of approximately 250 mm^3, mice were randomly assigned to 4 treatment groups and treated with: (A) vehicle control, (B) 10 Gy RAD only, (C) sensitiser only, or (D) sensitiser given before 10 Gy RAD. Drugs were administered as a single i.v. dose at 2.2 mmol/kg. […] Tumours were excised 18 h after treatment, and tumour cells were dissociated enzymatically and plated to determine the number of surviving (clonogenic) cells per gram of tumour tissue. SF and SR were calculated as described above. Statistical significance of drug effects was tested using one-way ANOVA with Sidak tests for multiple comparisons vs. radiation alone (Table 5).

Q: For `O=C(Cn1ccnc1[N+](=O)[O-])NCCO` [Compound 2, etanidazole, reference compound], which “Sensitisation Ratio” value is on record?
A: Its value is 3.34.

same assay, conditions: 2.2 mmol/kg i.v. + 10 Gy, one-way ANOVA

Q: Which “enhancement of tumour killing of radiotherapy (RAD vs drug + RAD)” value does the source give for `O=C(Cn1ccnc1[N+](=O)[O-])NCCO` [Compound 2, etanidazole, reference compound] here?
A: The value was “significantly enhanced the tumour killing of radiotherapy”.

tested on: UT-SCC-74B tumours; assay: as above; assay type: in vivo, NIH-III mice; details: 2.2 mmol/kg i.v. 5 min prior to 10 Gy radiation, surviving fraction after radiation/surviving fraction after drug + radiation
Method: as §3, §4

Q: With `O=C(Cn1ccnc1[N+](=O)[O-])NCCO` [Compound 2, etanidazole, reference compound] as the molecule, how does the “Sensitisation Ratio” value read?
A: Its value is 8.94.

same assay, conditions: 2.2 mmol/kg i.v. + 10 Gy, one-way ANOVA

Q: With `O=C(Cn1ccnc1[N+](=O)[O-])NCCO` [Compound 2, etanidazole, reference compound] as the molecule, how does the “enhancement of tumour cell killing by radiotherapy (RAD vs drug + RAD)” value read?
A: The value was “significantly enhanced tumour cell killing by radiotherapy”.

same assay, conditions: drug alone 2.2 mmol/kg i.v., relative to untreated tumours

Q: For `O=C(Cn1ccnc1[N+](=O)[O-])NCCO` [Compound 2, etanidazole, reference compound], which “single agent cell kill” value is on record?
A: The value was 55.9 ± 1.1%.

tested on: HCT116/54C tumour xenografts; assay: Tumour growth inhibition in combination with radiation; assay type: in vivo, NIH-III mice; details: HCT116/54C tumours, fractionated radiation, p < 0.05
Method: as §3
Compounds were evaluated for their ability to inhibit tumour growth in combination with a single dose of radiation (10 Gy) in HCT116/54C or UT-SCC-74B tumour xenografts on the backs of NIH-III mice. In addition, a fractionated radiation schedule (5 Gy on Days 1, 7 and 14) was explored in HCT116/54C tumour xenografts. Mice were randomly assigned to 4 treatment groups and treated with: (A) vehicle control, (B) 10 Gy RAD only, (C) sensitiser only, or (D) sensitiser given 10 min before 10 Gy RAD. Drugs were administered by i.v. injection at 2.2 mmol/kg either as a single dose or three doses on Days 1, 7 and 14 in the fractionated study. Treatment commenced when the average tumour size reached approximately 250 mm^3, and tumour size was measured until study endpoint. Mice were placed in a custom-built lead-shielded jig that allowed irradiation of the whole tumour but shielded the mouse from radiation. Survival analysis represented the time taken for tumours to increase in relative tumour volume by 4× from the start of treatment (RTV^4). The significance of differences in activity between the groups was assessed by log-rank with Holm–Sidak multiple comparison analysis.

Q: With `O=C(Cn1ccnc1[N+](=O)[O-])NCCO` [Compound 2, etanidazole, reference compound] as the molecule, how does the “survival (time to RTV^4) vs radiation alone” value read?
A: The value was “significantly increased survival compared to radiation alone”.

tested on: not given; assay: not given; details: not given

Q: Which melting point does the source give for `O=[N+]([O-])c1nccn1CCNS(=O)(=O)CCO` [Compound 17, 2-Hydroxy-N-(2-(2-nitro-1H-imidazol-1-yl)ethyl)ethane-1-sulfonamide] here?
A: Its melting point is 124 to 127 °C.

tested on: not given; assay: not given; parameters: method as in PMID 29253343; details: NIH-III mice, 2.2 mmol/kg i.v.; cited from earlier work

Q: Which results are given for `O=C(Cn1ccnc1[N+](=O)[O-])NCCO` [Compound 2, etanidazole, reference compound]?
A: AUC: 1820 µM·h; T1/2: 1.05 h

same assay, conditions: NIH-III mice, 2.2 mmol/kg i.v.; read-out: Plasma Cmax; cited from earlier work

Q: Which Cmax does the source give for `O=C(Cn1ccnc1[N+](=O)[O-])NCCO` [Compound 2, etanidazole, reference compound] here?
A: The Cmax was 3640 µM.
